In general, pIC50 refers to the IC50 on a negative log10 scale, so that one unit is a factor of ten.

SMILES strings stand for the structures. pIC50: −log10 of the molar value.

Consider 50 molecules from patent US10450301B2, “Apoptosis signal-regulating kinase 1 inhibitors and methods of use thereof” (ENANTA PHARMACEUTICALS, INC., priority 2017, dated 2019).

Chain of ASK1 (Q99683 whole entry): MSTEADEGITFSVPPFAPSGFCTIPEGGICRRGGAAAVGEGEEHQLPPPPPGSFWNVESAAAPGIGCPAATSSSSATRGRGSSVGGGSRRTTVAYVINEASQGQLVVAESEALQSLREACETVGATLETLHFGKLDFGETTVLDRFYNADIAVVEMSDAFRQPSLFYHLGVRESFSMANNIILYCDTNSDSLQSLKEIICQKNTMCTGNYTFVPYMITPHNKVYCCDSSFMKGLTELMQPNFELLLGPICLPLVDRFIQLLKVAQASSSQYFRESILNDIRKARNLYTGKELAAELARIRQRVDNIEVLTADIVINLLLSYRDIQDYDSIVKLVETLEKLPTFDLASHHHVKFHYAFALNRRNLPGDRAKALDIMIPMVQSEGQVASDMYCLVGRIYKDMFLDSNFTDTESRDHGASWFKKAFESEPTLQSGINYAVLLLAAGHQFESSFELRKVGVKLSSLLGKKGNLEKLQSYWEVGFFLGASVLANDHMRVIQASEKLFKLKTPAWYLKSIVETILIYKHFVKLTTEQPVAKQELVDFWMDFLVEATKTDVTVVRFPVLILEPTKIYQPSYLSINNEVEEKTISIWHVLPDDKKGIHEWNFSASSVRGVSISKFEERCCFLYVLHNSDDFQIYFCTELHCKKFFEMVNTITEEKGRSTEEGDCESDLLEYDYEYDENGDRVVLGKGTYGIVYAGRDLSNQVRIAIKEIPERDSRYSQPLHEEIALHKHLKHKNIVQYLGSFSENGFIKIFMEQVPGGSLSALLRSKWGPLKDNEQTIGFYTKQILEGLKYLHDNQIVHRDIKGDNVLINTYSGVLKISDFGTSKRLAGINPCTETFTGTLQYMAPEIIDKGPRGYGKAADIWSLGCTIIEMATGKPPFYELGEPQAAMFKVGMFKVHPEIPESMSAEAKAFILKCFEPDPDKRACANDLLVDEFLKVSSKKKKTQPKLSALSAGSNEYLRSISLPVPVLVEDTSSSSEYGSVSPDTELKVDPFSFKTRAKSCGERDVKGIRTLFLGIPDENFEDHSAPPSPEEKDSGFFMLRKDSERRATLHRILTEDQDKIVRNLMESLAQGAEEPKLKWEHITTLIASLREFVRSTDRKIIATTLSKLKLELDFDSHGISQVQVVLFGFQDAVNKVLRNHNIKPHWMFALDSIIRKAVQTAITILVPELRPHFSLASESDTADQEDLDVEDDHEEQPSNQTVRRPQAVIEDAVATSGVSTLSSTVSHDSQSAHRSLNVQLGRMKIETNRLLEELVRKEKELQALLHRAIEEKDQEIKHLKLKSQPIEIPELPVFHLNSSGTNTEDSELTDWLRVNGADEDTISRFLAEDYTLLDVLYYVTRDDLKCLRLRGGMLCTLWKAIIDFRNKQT

This experiment concerns the target ASK1 (Homo sapiens (Human), UniProt Q99683). As to the kind of experiment: HTRF KinEASE Assay (TR-FRET, STK3 peptide substrate), inhibition of ASK1. It counts as biochemical. The note with it: 5 nM ASK1 kinase, 1 μM STK3 peptide substrate, 100 μM ATP, 3 hours; compound 0 to 10 μM. The protocol: Assay HTRF® KinEASE™ Assay
ASK1 was purchased from Thermofisher (Catalogue # PV4011), ATP was purchased from Sigma (Catalogue # A7699), HI-TRF® KinEASE™ Assay System was obtained from Cisbio (Bedford, Mass.). […] HTRF® KinEASE™-STK is a generic method for measuring serine/threonine kinase activities using a time-resolved fluorescence resonance energy transfer (TR-FRET) immunoassay. […] 100 Um ATP is added to start kinase reaction and incubated for 3 hours. The STK3-antibody labeled with Eu^3+-Cryptate and 125 Nm streptavidin-XL665 are mixed in a single addition with stop reagents provided by the Cisbio kit used to stop the kinase reaction. […] The resulting TR-FRET is proportional to the phosphorylation level. Staurosporine was used as the positive control. IC50 was determined by Xlfit 5.3.
By using above method, the inhibition of ASK1 was evaluated for the compounds of Formula (I).
For orientation: TR-FRET usually uses a lanthanide donor and a delayed reading to cut background.
Molecule `CC(C)n1cnnc1-c1cccc(NC(=O)c2ccc3c(c2)CN(C(=O)OC2CCCC2)CC3)n1` [Example 34] had a pIC50 of 7.00 to 8.00. Then `CCOC(=O)N1CCc2cc(F)c(C(=O)Nc3cccc(-c4nncn4C(C)C)n3)cc2C1` [Example 26], with 8.00 to 9.00; and `CC(C)COC(=O)N1CCc2cnc(C(=O)Nc3cccc(-c4nnnn4[C@H](C)CO)n3)cc2C1` [Example 127], with 8.00 to 9.00. As for `CC(=O)OC[C@@H](C)n1nnnc1-c1cccc(NC(=O)c2cc3c(cc2F)CCN(C(=O)N(C)CC(F)(F)F)C3)n1` [Example 72], the pIC50 was < 6.00. Then `CCNC(=O)N1CCc2ccc(C(=O)Nc3cccc(-c4nncn4C(C)C)n3)cc2C1` [Example 63], with 8.00 to 9.00. Then `CCNS(=O)(=O)N1CCc2cc(F)c(C(=O)Nc3cccc(-c4nncn4C(C)C)n3)cc2C1` [Example 22], with 8.00 to 9.00. The same measure for `CC(C)n1nnnc1-c1cccc(NC(=O)c2ccc3c(c2)CN(C(=O)N2CCCC2)C3)n1` [Example 11]: 6.00 to 7.00. As to `COC(=O)N1CCc2cnc(C(=O)Nc3cccc(-c4nnnn4[C@H](C)CO)n3)cc2C1` [Example 128], the pIC50 was 8.00 to 9.00.

In the case of `CCNC(=O)N1CCc2cnc(C(=O)Nc3cccc(-c4nnnn4C(C)C)n3)cc2C1` [Example 117], the negative logarithm of the IC50 (pIC50) was 8.00 to 9.00. The same measure for `CC(C)n1cnnc1-c1cccc(NC(=O)c2cc3c(cc2F)CCN(C(=O)OC2CCCC2)C3)n1` [Example 25]: 8.00 to 9.00; for `C[C@H](CO)n1nnnc1-c1cccc(NC(=O)c2cc3c(cn2)CCN(C(=O)C2CC2)C3)n1` [Example 155]: 8.00 to 9.00; for `CCN1CCN(C(=O)N2CCc3cc(F)c(C(=O)Nc4cccc(-c5nnnn5C(C)C)n4)cc3C2)C(=O)C1=O` [Example 90]: 7.00 to 8.00. Then `CC(C)n1cnnc1-c1cccc(NC(=O)c2ccc3c(c2)CN(C(=O)OCc2ccccc2)C3)n1` [Example 3, benzyl 5-((6-(4-isopropyl-4H-1,2,4-triazol-3-yl)pyridin-2-yl)carbamoyl)isoindoline-2-carboxylate], with 7.00 to 8.00. As for `C[C@H](CO)n1nnnc1-c1cccc(NC(=O)c2cc3c(cn2)CCN(CC2CC2)C3)n1` [Example 163, (R)-6-(cyclopropylmethyl)-N-(6-(1-(1-hydroxypropan-2-yl)-1H-tetrazol-5-yl)pyridin-2-yl)-5,6,7,8-tetrahydro-2,6-naphthyridine-3-carboxamide], the pIC50 was 8.00 to 9.00. Then `COCCS(=O)(=O)N1Cc2ccc(C(=O)Nc3cccc(-c4nncn4C(C)C)n3)cc2C1` [Example 6], with 6.00 to 7.00; and `CCN(C)C(=O)N1CCc2cc(F)c(C(=O)Nc3cccc(-c4nnnn4C(C)C)n3)cc2C1` [Example 95], with 7.00 to 8.00. As to `COCCS(=O)(=O)N1Cc2ccc(C(=O)Nc3cccc(-c4nnnn4C(C)C)n3)cc2C1` [Example 15], the pIC50 was < 6.00. Then `COCCS(=O)(=O)N1CCc2cc(F)c(C(=O)Nc3cccc(-c4nnnn4C(C)C)n3)cc2C1` [Example 55], with 7.00 to 8.00. Take `C[C@H](CO)n1nnnc1-c1cccc(NC(=O)c2cc3c(cn2)CCN(C(=O)OC(C)(C)C)C3)n1` [Example 143, tert-butyl (R)-7-((6-(1-(1-hydroxypropan-2-yl)-1H-tetrazol-5-yl)pyridin-2-yl)carbamoyl)-3,4-dihydro-2,6-naphthyridine-2(1H)-carboxylate]: the negative logarithm of the IC50 (pIC50) is 8.00 to 9.00. Then `COCCS(=O)(=O)N1CCc2cnc(C(=O)Nc3cccc(-c4nnnn4C(C)C)n3)cc2C1` [Example 138], with 8.00 to 9.00; and `CC(C)n1cnnc1-c1cccc(NC(=O)c2cc3c(cc2F)CCN(S(=O)(=O)N(C)C)C3)n1` [Example 49], with 8.00 to 9.00; and `CC(C)n1nnnc1-c1cccc(NC(=O)c2cc3c(cc2F)CCN(C(=O)N2CCS(=O)(=O)CC2)C3)n1` [Example 104], with 7.00 to 8.00. Take `CC(C)n1cnnc1-c1cccc(NC(=O)c2cc3c(cc2F)CCN(C(=O)N2CCOCC2)C3)n1` [Example 50]: the negative-log IC50 (pIC50) was 7.00 to 8.00. Then `CC(C)N1Cc2cnc(C(=O)Nc3cccc(-c4nnnn4[C@H](C)CO)n3)cc2C1=O` [Example 18, (R)—N-(6-(1-(1-hydroxypropan-2-yl)-1H-tetrazol-5-yl)pyridin-2-yl)-2-isopropyl-1-oxo-2,3-dihydro-1H-pyrrolo[3,4-c]pyridine-6-carboxamide], with 7.00 to 8.00. The same measure for `CC(C)n1cnnc1-c1cccc(NC(=O)c2ccc3c(c2)CN(C(=O)OCc2ccccc2)CC3)n1` [Example 67, benzyl 7-((6-(4-isopropyl-4H-1,2,4-triazol-3-yl)pyridin-2-yl)carbamoyl)-3,4-dihydroisoquinoline-2(1H)-carboxylate]: 7.00 to 8.00. The same measure for `CCn1cc(CNC(=O)N2CCc3cnc(C(=O)Nc4cccc(-c5nnnn5[C@H](C)CO)n4)cc3C2)cn1` [Example 187]: > 9.00; for `COCCC(=O)N1CCc2cc(F)c(C(=O)Nc3cccc(-c4nncn4C(C)C)n3)cc2C1` [Example 24, 6-fluoro-N-(6-(4-isopropyl-4H-1,2,4-triazol-3-yl)pyridin-2-yl)-2-(3-methoxypropanoyl)-1,2,3,4-tetrahydroisoquinoline-7-carboxamide]: 8.00 to 9.00; for `CCOC(=O)N1CCc2cnc(C(=O)Nc3cccc(-c4nnnn4[C@H](C)CO)n3)cc2C1` [Example 145]: 8.00 to 9.00. Consider `CC(C)N1Cc2cc(F)c(C(=O)Nc3cccc(-c4nncn4C(C)C)n3)cc2C1=O` [Example 177, 6-fluoro-2-isopropyl-N-(6-(4-isopropyl-4H-1,2,4-triazol-3-yl)pyridin-2-yl)-3-oxoisoindoline-5-carboxamide], for which the negative-log IC50 (pIC50) is < 6.00.

Turning to `CC(C)n1nnnc1-c1cccc(NC(=O)c2cc3c(cn2)CCN(S(=O)(=O)CCC(F)(F)F)C3)n1` [Example 172], the negative logarithm of the IC50 (pIC50) was 8.00 to 9.00. The same measure for `CC(C)c1nnnn1-c1cccc(NC(=O)c2cc3c(cc2F)CCN(C(=O)OCc2ccccc2)C3)n1` [Example 83, benzyl 6-fluoro-7-((6-(5-isopropyl-1H-tetrazol-1-yl)pyridin-2-yl)carbamoyl)-3,4-dihydroisoquinoline-2(1H)-carboxylate]: < 6.00; for `CC(C)CS(=O)(=O)N1CCc2cnc(C(=O)Nc3cccc(-c4nnnn4C(C)C)n3)cc2C1` [Example 141]: 8.00 to 9.00. In turn, `CCN1CCc2cnc(C(=O)Nc3cccc(-c4nnnn4[C@H](C)CO)n3)cc2C1` [Example 136] showed a pIC50 of 7.00 to 8.00. `CC(C)n1nnnc1-c1cccc(NC(=O)c2cc3c(cc2F)CCN(C(=O)N(C)CCC(F)(F)F)C3)n1` [Example 107] showed a pIC50 of 7.00 to 8.00. Consider `CC(C)n1nnnc1-c1cccc(NC(=O)c2cc3c(cn2)CCN(C(=O)OC(C)(C)C)C3)n1` [Example 153, tert-butyl 7-((6-(1-isopropyl-1H-tetrazol-5-yl)pyridin-2-yl)carbamoyl)-3,4-dihydro-2,6-naphthyridine-2(1H)-carboxylate], for which the negative logarithm of the IC50 (pIC50) is 7.00 to 8.00. The molecule `CC(C)n1nnnc1-c1cccc(NC(=O)c2cc3c(cc2F)CCN(S(=O)(=O)CC2CC(F)(F)C2)C3)n1` [Example 102] had a pIC50 of 7.00 to 8.00.

As to `C[C@H](CO)n1nnnc1-c1cccc(NC(=O)c2cc3c(cc2F)CCN(C(=O)N2CCCC2)C3)n1` [Example 76], the pIC50 is 8.00 to 9.00. The same measure for `CCNC(=O)N1CCc2cnc(C(=O)Nc3cccc(-c4nnnn4[C@H](C)CO)n3)cc2C1` [Example 170]: 8.00 to 9.00; for `C[C@H](CO)n1nnnc1-c1cccc(NC(=O)c2cc3c(cn2)CCN(C=O)C3)n1` [Example 142, (R)-6-formyl-N-(6-(1-(1-hydroxypropan-2-yl)-1H-tetrazol-5-yl)pyridin-2-yl)-5,6,7,8-tetrahydro-2,6-naphthyridine-3-carboxamide]: 8.00 to 9.00; for `C[C@H](CO)n1nnnc1-c1cccc(NC(=O)c2cc3c(cn2)CCN(Cc2ccccn2)C3)n1` [Example 171]: 8.00 to 9.00.

In turn, `CC(C)n1cnnc1-c1cccc(NC(=O)c2cc3c(cc2F)CCNC3)n1` [Example 27] showed a negative-log IC50 (pIC50) of 7.00 to 8.00.

For `CC1c2cc(C(=O)Nc3cccc(-c4nnnn4C(C)C)n3)c(F)cc2CCN1CC(=O)N1CCCC1` (centres unmarked) [Example 108, 6-fluoro-N-(6-(1-isopropyl-1H-tetrazol-5-yl)pyridin-2-yl)-1-methyl-2-(2-oxo-2-(pyrrolidin-1-yl)ethyl)-1,2,3,4-tetrahydroisoquinoline-7-carboxamide], the pIC50 is 6.00 to 7.00. Then `CC(C)CS(=O)(=O)N1CCc2cc(F)c(C(=O)Nc3cccc(-c4nncn4C(C)C)n3)cc2C1` [Example 42], with 8.00 to 9.00. Then `CC(C)n1cnnc1-c1cccc(NC(=O)c2ccc3c(c2)CN(C(=O)c2nccs2)CC3)n1` [Example 32], with 7.00 to 8.00. In turn, `CCN(CC)C(=O)N1CCc2cc(F)c(C(=O)Nc3cccc(-c4nncn4C(C)C)n3)cc2C1` [Example 41] had a negative-log IC50 (pIC50) of 8.00 to 9.00. `CC(C)n1cnnc1-c1cccc(NC(=O)c2cc3c(cc2F)CCN(S(=O)(=O)C2CCCC2)C3)n1` [Example 21] gave a negative-log IC50 (pIC50) of 8.00 to 9.00. For `CC(C)n1nnnc1-c1cccc(NC(=O)c2cc3c(cc2F)CCN(S(=O)(=O)CCC(F)(F)F)C3)n1` [Example 40], the pIC50 is 7.00 to 8.00. Molecule `CCN(C)C(=O)N1CCc2cnc(C(=O)Nc3cccc(-c4nnnn4[C@H](C)CO)n3)cc2C1` [Example 167] gave a pIC50 of 8.00 to 9.00. Then `CC(C)n1nnnc1-c1cccc(NC(=O)c2cc3c(cc2F)CCN(S(=O)(=O)N(C)C)C3)n1` [Example 89], with 7.00 to 8.00.

Molecule `CC1c2cc(C(=O)Nc3cccc(-c4nnnn4C(C)C)n3)c(F)cc2CCN1C(=O)N1CCCC1` (centres unmarked) [Example 69] showed a pIC50 of 7.00 to 8.00.
